Data reported in ChEMBL document CHEMBL5335866, “Structure-Based Optimization of Selective and Brain Penetrant CK1δ Inhibitors for the Treatment of Circadian Disruptions” (ACS Med Chem Lett, 2024).
In brackets after ≈: the same amount, converted by molar mass.

How the values were obtained:
[1] = Intrinsic clearance in human liver microsomes at 1 uM preincubated for 5 mins followed by NADPH addition measured for 60 mins by LC-MS/MS analysis; type: ADME, Microsome; conditions: time 65 min, read-out: CLH
[2] = Intrinsic clearance in rat liver microsomes at 1 uM preincubated for 5 mins followed by NADPH addition measured for 60 mins by LC-MS/MS analysis; type: ADME, Microsome; conditions: time 65 min, read-out: CLH
[3] = target: Mitogen-activated protein kinase 14 (Homo sapiens, UniProt Q16539); test: Inhibition of p38 alpha (unknown origin)
[4] = target: Citron Rho-interacting kinase (Homo sapiens) (UniProt O14578); test: Inhibition of CRIK (unknown origin) at 1 uM by radiometric assay relative to control
[5] = target: Epithelial discoidin domain-containing receptor 1 (Homo sapiens) (UniProt Q08345); test: Inhibition of DDR1 (unknown origin) at 1 uM by radiometric assay relative to control
[6] = target: T1, Dual specificity mitogen-activated protein kinase kinase 3 (Homo sapiens) (UniProt P46734); test: Inhibition of MKK3 (unknown origin) at 1 uM by radiometric assay relative to control
T1 sequence (whole entry): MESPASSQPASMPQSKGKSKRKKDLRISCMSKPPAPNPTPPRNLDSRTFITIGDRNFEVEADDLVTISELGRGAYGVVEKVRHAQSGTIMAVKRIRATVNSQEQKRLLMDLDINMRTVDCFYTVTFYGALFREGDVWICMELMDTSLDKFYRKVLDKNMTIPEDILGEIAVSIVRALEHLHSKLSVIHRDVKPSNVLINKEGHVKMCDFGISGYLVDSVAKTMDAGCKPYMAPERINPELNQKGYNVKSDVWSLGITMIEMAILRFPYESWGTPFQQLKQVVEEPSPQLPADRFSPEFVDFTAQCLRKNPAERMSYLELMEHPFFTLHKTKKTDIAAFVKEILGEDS

[7] = target: T2, Serine/threonine-protein kinase NLK (Homo sapiens) (UniProt Q9UBE8); test: Inhibition of NLK (unknown origin) at 1 uM by radiometric assay relative to control
T2 sequence (whole entry): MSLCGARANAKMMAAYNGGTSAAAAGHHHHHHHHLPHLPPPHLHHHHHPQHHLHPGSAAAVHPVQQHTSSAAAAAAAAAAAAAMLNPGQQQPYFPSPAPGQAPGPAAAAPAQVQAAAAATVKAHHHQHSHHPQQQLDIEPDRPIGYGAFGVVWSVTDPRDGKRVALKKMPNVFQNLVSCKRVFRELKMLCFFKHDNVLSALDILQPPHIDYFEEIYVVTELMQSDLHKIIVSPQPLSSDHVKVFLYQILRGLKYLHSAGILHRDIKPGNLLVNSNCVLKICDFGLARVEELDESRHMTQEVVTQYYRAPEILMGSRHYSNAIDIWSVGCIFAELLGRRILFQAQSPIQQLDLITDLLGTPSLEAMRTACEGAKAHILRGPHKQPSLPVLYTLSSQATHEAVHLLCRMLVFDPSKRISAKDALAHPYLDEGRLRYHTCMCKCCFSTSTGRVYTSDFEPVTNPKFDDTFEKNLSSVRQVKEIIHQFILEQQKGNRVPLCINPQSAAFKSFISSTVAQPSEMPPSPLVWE

[8] = target: Receptor-interacting serine/threonine-protein kinase 2 (Homo sapiens) (UniProt O43353); test: Inhibition of RIPK2 (unknown origin) at 1 uM by radiometric assay relative to control
[9] = target: T3, TGF-beta receptor type-1 (Homo sapiens) (UniProt P36897); test: Inhibition of TGFBR1 (unknown origin) at 1 uM by radiometric assay relative to control
T3 sequence (whole entry): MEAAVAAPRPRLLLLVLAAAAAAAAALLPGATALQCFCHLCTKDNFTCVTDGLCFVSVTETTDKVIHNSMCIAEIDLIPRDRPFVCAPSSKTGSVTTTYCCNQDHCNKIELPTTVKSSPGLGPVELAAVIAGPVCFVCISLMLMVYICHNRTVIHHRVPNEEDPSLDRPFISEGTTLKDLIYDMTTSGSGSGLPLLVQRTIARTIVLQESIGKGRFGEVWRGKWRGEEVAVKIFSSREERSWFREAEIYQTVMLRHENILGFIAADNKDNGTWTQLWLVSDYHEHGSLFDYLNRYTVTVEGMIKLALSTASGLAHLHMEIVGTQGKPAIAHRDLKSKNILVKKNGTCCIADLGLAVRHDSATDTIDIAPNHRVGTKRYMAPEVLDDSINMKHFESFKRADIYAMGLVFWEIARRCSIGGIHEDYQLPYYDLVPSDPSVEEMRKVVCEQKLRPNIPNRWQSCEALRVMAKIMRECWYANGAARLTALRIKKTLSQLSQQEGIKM

[10] = target: TRAF2 and NCK-interacting protein kinase (Homo sapiens, UniProt Q9UKE5); test: Inhibition of TNIK (unknown origin) at 1 uM by radiometric assay relative to control
[11] = target: Mitogen-activated protein kinase kinase kinase 20 (Homo sapiens) (UniProt Q9NYL2); test: Inhibition of ZAK (unknown origin) at 1 uM by radiometric assay relative to control
[12] = target: T4, Casein kinase I isoform delta (Homo sapiens, UniProt P48730); test: Displacement of kinase tracer 8 from NanoLuc-tagged CK1 delta (unknown origin) transfected in CHO cells by BRET assay; type: cell-based
[13] = target: T4, Casein kinase I isoform delta; test: Inhibition of N-terminal GST-tagged recombinant human CK1 delta expressed in Escherichia coli BL21 cells using PLSRTL-pS-VA-pS-LPGL as substrate measured after 60 mins in presence of ATP by ADP-Glo assay
[14] = Solubility of compound at pH 2 measured for 2 to 5 days by HPLC analysis; type: physicochemical; conditions: buffer, time 2-5 day
[15] = Solubility of compound at pH 7 measured for 2 to 5 days by HPLC analysis; type: physicochemical; conditions: buffer, time 2-5 day
[16] = Apparent permeability across apical to basal side in MDCK cells expressing MDR1 at 5 uM incubated for 60 mins by LC/MS/MS analysis; type: ADME, cell-based, Canis lupus familiaris, MDCK1; conditions: dog
MDR1 = test: Efflux ratio of apparent permeability across basal to apical side over apical to basal side in MDCK cells expressing MDR1 at 5 uM incubated for 60 mins by LC/MS/MS analysis; type: ADME, cell-based, Canis lupus familiaris, MDCK1; conditions: dog
[17] = target: Mitogen-activated protein kinase 11 (Homo sapiens, UniProt Q15759); test: Inhibition of p38 beta (unknown origin)
[18] = Clearance in Sprague-Dawley rat at 1 mg/kg, iv measured for 24 hrs by LC-MS/MS analysis; type: ADME, organism-based; conditions: in vivo
[19] = Volume of distribution at steady state in Sprague-Dawley rat at 1 mg/kg, iv measured for 24 hrs by LC-MS/MS analysis; type: ADME, organism-based; conditions: in vivo, read-out: Vdss
[20] = Oral bioavailability in Sprague-Dawley rat at 5 mg/kg measured for 24 hrs by LC-MS/MS analysis; type: ADME, organism-based; conditions: in vivo
[21] = Cmax in Sprague-Dawley rat at 5 mg/kg, po measured for 24 hrs by LC-MS/MS analysis; type: ADME, organism-based; design: dose 5 mg/kg, time 24 hrs, route po; conditions: in vivo
[22] = Half life in Sprague-Dawley rat at 5 mg/kg, po measured for 24 hrs by LC-MS/MS analysis; type: ADME, organism-based; conditions: in vivo
[23] = AUC (infinity) in Sprague-Dawley rat at 5 mg/kg, po measured for 24 hrs by LC-MS/MS analysis; type: ADME, organism-based; design: time 24 hrs, dose 5 mg/kg, route po; conditions: in vivo

Chain of Receptor-interacting serine/threonine-protein kinase 2 (Homo sapiens) (O43353 whole entry): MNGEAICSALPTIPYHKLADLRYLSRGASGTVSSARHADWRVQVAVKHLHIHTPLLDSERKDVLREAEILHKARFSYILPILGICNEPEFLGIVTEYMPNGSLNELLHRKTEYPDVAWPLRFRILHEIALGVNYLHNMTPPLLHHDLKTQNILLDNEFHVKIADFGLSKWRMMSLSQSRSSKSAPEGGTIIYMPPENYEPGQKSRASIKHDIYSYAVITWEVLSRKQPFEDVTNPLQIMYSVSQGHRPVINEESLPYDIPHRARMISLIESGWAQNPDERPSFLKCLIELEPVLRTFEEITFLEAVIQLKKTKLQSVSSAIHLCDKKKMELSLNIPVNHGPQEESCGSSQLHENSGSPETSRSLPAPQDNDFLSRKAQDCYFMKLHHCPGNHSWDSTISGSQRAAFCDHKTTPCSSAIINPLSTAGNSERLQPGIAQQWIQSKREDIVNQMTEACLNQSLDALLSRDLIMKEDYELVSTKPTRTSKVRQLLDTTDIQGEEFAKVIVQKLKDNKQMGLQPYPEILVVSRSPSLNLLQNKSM
Chain of Mitogen-activated protein kinase 11 (Q15759 whole entry): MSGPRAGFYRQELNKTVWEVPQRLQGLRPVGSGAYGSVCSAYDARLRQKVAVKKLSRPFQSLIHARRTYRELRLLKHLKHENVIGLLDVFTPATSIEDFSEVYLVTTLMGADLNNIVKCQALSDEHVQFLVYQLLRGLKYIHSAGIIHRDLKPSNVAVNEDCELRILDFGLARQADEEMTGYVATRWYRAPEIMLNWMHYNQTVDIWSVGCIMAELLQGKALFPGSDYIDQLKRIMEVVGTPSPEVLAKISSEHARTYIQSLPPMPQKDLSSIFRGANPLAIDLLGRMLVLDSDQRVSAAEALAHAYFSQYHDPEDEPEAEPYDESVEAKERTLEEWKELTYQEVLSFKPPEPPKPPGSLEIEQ
Chain of Citron Rho-interacting kinase (Homo sapiens) (O14578 whole entry, the tested form may be a part): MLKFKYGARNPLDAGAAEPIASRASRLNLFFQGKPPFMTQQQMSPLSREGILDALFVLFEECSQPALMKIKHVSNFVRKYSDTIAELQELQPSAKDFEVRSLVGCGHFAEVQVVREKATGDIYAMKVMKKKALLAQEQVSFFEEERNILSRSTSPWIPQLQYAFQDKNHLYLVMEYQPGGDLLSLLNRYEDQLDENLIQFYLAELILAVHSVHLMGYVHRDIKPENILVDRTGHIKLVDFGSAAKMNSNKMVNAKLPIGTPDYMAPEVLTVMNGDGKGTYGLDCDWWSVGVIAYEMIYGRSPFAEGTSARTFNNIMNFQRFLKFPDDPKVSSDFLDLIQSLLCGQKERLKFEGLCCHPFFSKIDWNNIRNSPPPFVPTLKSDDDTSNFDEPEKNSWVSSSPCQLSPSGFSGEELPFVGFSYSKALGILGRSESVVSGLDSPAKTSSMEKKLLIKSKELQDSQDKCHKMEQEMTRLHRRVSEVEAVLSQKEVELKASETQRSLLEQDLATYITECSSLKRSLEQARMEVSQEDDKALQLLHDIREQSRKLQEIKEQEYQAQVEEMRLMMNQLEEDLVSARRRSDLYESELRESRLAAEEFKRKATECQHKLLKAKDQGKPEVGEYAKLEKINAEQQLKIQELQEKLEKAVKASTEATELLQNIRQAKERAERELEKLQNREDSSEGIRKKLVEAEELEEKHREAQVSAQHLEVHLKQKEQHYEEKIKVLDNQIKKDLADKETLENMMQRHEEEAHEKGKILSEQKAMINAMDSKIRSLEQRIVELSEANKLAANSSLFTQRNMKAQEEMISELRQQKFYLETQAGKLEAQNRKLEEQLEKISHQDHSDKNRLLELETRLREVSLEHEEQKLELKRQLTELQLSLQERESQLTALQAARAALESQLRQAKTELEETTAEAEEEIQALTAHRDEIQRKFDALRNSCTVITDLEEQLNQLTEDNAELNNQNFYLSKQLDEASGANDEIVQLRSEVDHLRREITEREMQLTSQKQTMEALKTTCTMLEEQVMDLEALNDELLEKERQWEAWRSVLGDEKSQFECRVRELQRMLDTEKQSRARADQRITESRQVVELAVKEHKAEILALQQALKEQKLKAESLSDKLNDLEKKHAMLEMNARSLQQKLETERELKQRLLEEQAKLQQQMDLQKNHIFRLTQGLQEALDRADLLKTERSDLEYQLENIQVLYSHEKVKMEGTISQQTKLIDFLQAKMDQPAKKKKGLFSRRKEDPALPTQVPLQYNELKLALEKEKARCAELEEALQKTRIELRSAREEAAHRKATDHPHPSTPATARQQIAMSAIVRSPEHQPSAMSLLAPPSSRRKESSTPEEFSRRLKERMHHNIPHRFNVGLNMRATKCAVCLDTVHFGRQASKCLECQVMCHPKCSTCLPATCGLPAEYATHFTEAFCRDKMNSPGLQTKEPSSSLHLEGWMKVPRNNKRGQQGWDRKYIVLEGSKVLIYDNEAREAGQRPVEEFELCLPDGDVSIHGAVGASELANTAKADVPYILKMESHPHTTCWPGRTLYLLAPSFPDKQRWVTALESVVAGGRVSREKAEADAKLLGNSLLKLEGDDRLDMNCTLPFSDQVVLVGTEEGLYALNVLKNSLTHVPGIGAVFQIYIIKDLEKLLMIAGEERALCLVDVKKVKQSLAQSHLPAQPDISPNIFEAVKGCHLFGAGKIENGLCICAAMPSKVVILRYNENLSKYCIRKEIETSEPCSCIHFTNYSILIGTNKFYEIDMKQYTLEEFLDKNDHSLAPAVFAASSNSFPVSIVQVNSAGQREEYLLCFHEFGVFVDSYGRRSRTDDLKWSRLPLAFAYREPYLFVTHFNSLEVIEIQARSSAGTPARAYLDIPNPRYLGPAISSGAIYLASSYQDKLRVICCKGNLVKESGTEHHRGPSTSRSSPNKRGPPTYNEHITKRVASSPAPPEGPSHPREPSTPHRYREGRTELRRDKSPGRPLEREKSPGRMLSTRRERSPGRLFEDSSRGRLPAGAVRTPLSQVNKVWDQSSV
Chain of Mitogen-activated protein kinase 14 (Q16539 whole entry): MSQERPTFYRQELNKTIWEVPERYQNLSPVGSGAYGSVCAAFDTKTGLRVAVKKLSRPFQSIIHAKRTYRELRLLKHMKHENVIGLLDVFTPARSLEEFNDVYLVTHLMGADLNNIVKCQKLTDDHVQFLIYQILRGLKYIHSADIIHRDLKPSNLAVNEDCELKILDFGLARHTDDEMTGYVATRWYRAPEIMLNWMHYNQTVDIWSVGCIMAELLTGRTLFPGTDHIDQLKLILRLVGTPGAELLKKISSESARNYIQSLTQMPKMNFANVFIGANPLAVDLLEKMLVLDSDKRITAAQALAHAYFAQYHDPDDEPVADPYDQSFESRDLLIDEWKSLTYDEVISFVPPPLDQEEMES
T4 sequence (P48730 whole entry, canonical isoform): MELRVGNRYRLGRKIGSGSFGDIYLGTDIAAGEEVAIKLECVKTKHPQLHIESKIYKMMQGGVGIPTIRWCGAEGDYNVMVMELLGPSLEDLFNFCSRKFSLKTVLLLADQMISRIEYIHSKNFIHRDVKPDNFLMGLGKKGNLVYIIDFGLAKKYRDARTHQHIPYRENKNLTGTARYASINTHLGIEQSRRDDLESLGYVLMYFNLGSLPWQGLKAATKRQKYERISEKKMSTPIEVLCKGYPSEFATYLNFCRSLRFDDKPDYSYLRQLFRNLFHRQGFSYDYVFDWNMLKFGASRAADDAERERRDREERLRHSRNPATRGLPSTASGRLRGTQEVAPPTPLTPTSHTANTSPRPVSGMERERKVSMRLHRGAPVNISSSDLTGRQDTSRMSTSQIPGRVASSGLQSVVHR
Chain of TRAF2 and NCK-interacting protein kinase (Q9UKE5 whole entry, looked up): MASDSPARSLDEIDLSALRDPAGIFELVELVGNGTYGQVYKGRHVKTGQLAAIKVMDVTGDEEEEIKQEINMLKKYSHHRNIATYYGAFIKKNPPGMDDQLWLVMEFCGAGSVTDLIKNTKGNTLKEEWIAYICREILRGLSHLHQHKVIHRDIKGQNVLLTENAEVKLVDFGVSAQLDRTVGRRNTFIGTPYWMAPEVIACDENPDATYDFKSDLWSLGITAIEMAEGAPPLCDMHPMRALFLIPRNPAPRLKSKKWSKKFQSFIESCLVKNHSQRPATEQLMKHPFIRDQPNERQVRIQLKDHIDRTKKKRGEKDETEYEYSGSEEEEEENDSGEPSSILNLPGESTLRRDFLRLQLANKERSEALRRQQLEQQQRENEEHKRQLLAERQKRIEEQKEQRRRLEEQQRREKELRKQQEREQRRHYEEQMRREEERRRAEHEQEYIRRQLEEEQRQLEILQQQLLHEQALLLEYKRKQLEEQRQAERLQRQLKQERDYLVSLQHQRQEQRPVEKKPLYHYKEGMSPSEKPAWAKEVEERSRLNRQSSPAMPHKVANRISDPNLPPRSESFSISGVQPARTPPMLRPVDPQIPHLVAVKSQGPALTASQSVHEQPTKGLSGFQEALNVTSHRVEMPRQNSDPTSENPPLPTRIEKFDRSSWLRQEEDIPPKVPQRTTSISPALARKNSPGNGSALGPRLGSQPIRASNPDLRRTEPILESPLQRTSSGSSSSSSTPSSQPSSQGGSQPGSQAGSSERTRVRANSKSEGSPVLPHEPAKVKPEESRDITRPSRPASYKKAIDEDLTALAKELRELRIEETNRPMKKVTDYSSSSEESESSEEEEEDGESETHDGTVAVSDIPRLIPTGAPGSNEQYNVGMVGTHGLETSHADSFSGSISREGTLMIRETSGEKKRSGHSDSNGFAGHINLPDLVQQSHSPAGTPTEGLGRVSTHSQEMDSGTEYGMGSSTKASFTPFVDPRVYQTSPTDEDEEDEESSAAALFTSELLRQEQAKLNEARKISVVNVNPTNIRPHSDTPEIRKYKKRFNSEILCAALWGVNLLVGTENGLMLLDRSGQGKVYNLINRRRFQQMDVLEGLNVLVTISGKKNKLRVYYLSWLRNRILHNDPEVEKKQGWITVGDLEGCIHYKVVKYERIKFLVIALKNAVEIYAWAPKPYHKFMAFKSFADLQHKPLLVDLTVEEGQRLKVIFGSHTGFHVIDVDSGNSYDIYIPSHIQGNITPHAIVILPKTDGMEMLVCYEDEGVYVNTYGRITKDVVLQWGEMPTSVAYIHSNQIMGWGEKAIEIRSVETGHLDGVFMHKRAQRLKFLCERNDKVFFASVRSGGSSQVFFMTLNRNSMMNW

Row | SMILES | microsomal CLint at 1 µM [1] | microsomal CLint at 1 µM [2] | IC50 [3] | inhibition [4] | inhibition [5] | inhibition [6] | inhibition [7] | inhibition [8] | inhibition [9] | inhibition [10] | inhibition [11] | IC50 [12] | other results
1 | CC1(C)Cn2nc(-c3ccc(F)cn3)c(-c3ccnc4[nH]ccc34)c2CO1 | 15.1 µL/min/mg | 42.9 µL/min/mg | 2100 nM | 15% | 25% | 40% | 16% | 39% | 49% | 84% | 20% |  | 
2 | Fc1ccc(-c2nn3c(c2-c2ccnc4[nH]ncc24)CCC(F)(F)C3)nc1 |  |  |  |  |  |  |  |  |  |  |  | 300 nM | 
3 | Cn1cc(-c2ccnc3[nH]c(C(F)(F)F)cc23)c(-c2ccc(F)cn2)n1 |  |  | 200 nM | 54% | 68% | 75% | 83% | 63% | 69% | 85% | 87% | 250 nM | 
4 | Cn1cc(-c2ccnc3[nH]ccc23)c(-c2ccc(F)cc2)n1 | 45 µL/min/mg | 170 µL/min/mg | 140 nM |  |  |  |  |  |  |  |  |  | IC50 [13]: 2.2 nM; solubility [14]: > 400 µM; solubility [15]: < 4 µM; Papp A→B at 1 h, 5 µM [16]: 25.9 ×10⁻⁶ cm/s; efflux ratio at 1 h, 5 µM (MDR1): 1.02; IC50 [17]: 250 nM
5 | Fc1ccc(-c2nn3c(c2-c2ccnc4[nH]ccc24)COCC3)nc1 |  |  | 4000 nM | 5% | 6% | 44% | 0% | 10% | 59% | 46% | 9% |  | 
6 | Cn1cc(-c2ccnc3[nH]ncc23)c(-c2ccc(F)cc2)n1 | 9.4 µL/min/mg | 42.2 µL/min/mg | 250 nM |  |  |  |  |  |  |  |  | 36 nM | IC50 [13]: 1.4 nM; solubility [14]: 112 µM (≈ 32.9 µg/mL); solubility [15]: 8.7 µM (≈ 2.55 µg/mL); Papp A→B at 1 h, 5 µM [16]: 27.3 ×10⁻⁶ cm/s; efflux ratio at 1 h, 5 µM (MDR1): 3; clearance [18]: 23 mL/min/kg; Vd [19]: 1.6 L/kg; bioavailability [20]: 70%; Cmax [21]: 2400 nM; half-life [22]: 2 h; AUC(0-inf) [23]: 2580 ng·h/mL; IC50 [17]: 780 nM
7 | Fc1ccc(-c2nn3c(c2-c2ccnc(NC4CCOCC4)n2)COCC3)cc1 |  |  |  |  |  |  |  |  |  |  |  | 45 nM | 
8 | Cn1cc(-c2ccnc3[nH]ccc23)c(-c2ccc(F)cn2)n1 | 7.7 µL/min/mg | 53.5 µL/min/mg | 930 nM | 80% | 89% | 74% | 74% | 81% | 98% | 60% | 100% |  | solubility [14]: > 400 µM; solubility [15]: > 400 µM; Papp A→B at 1 h, 5 µM [16]: 19.6 ×10⁻⁶ cm/s; clearance [18]: 35 mL/min/kg; Vd [19]: 0.6 L/kg; bioavailability [20]: 32%; Cmax [21]: 1600 nM; half-life [22]: 1.3 h; AUC(0-inf) [23]: 755 ng·h/mL; IC50 [17]: > 1000 nM
9 | Cn1cc(-c2cc(N)nc3[nH]ccc23)c(-c2ccc(F)cn2)n1 |  |  | > 10000 nM | 0% | 8% | 29% | 0% | 3% | 8% | 39% | 18% |  | 
10 | Cn1cc(-c2c(C#N)cnc3[nH]ccc23)c(-c2ccc(F)cn2)n1 |  |  | 6200 nM | 9% | 20% | 11% | 17% | 0% | 17% | 88% | 40% |  | 
11 | Cc1cnc2[nH]ccc2c1-c1cn(C)nc1-c1ccc(F)cn1 |  |  | 3000 nM | 14% | 21% | 19% | 0% | 0% | 8% | 54% | 30% |  | 
